Laboratory results reported in patent US12098135B2, “Aldoketo reductase inhibitors and uses thereof” (CASE WESTERN RESERVE UNIVERSITY, priority 2018, dated 2024).

Molecular target: T1, AKR1A1 (Homo sapiens, UniProt P14550)
T1 sequence (P14550 1-325): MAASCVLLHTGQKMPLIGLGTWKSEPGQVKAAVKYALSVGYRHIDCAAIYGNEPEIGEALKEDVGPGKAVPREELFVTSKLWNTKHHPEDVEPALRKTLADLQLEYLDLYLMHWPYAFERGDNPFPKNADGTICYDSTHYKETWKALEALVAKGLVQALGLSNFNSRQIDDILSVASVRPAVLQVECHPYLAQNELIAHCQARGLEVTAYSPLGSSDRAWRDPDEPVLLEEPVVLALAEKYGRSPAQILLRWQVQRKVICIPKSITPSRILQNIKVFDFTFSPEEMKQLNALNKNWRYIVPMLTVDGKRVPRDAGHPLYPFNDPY
Assay: AKR activity measured using S-nitroso-Coenzyme A (SNO-CoA) as a substrate; selectivity for AKR1A1 versus AKR1B1
Format: biochemical
Source text: In some embodiments, the selectivity of the AKR inhibitor for AKR1A1 inhibition versus other AKRs, such as AKR1B1, can be measured using S-nitroso-Coenzyme A (SNO-CoA) as a substrate. In this instance where SNO-CoA is used as a substrate to measure AKR activity, the AKR inhibitor can have a selectivity for AKR1A1 versus AKR1B1 of ≥1 time, ≥2 times, ≥5 times, ≥10 times, ≥20 times, ≥30 times, ≥40 times, ≥50 times or more. By way of example, JSD-26-1, which is described in the example below, has an AKR1A1/AKR1B1 selectivity of at least 9. In some embodiments, the AKR inhibitor can have negligible inhibition of AKR1B1 activity of SNO-CoA, and particularly compared to AKR1A1 activity.

In the case of O=C1NC(=O)C2(N1)c1ccccc1-c1ccc(C3CC3)cc12 (stereo not shown) [JSD-26-1], the AKR1A1/AKR1B1 selectivity is reported as “at least 9”.
